From patent US12241058B2, “Recombinant microbial system for directed evolution of glycocins and method of preparation thereof” (COUNCIL OF SCIENTIFIC & INDUSTRIAL RESEARCH, priority 2018, dated 2025)

Columns and labels:
THP-1 cells = test: Cytotoxicity MTT reduction assay; assay type: cell-based; settings: 50% cell death, THP-1 cells, MTT, 18-24 hours
Method: (§1) Cytotoxicity of Enterocin 96 and its variants (neo-glycocins) against THP-1 cells and anti-cancer potential against HepG2 cells was measured by the conventional MTT reduction assay. HepG2 and THP-1 cells (1×10^4 cells/well) were seeded into the 96-well plate and cultured at 37° C. in an atmosphere of 5% CO2 to allow them to adhere overnight. After 24 hours, the cells were exposed to Enterocin 96 and its variants (neo-glycocins) at various concentrations (75-1000 μM) for 18-24 hours. After the incubation period, 150 μl media and the suspended cells were discarded and washed with 200 μl PBS. After that, 200 μl of fresh media was added followed by 20 μl of MTT (5 mg/mL) into each well in the 96-well plate and incubated for 4 h in CO2 incubator. One hundred and fifty microlitres of medium with MTT was removed from every well and 100 μl DMSO was added to each well to solubilize the formazan crystal by incubating for 20 min in CO2 incubator. Finally, the plates were read at 570 nm by using Multiskan Go plate-reader (Thermo Scientific) and then percentage of cell viability was determined.

L. monocytogenes EGD-e = test: Agar diffusion test (ADT) of cell lysates, zone of growth inhibition, with PAS staining for glycosylation; assay type: cell-based, Listeria monocytogenes; settings: ADT against L. monocytogenes, cleavage buffer treated cell lysate, glycosylation by PAS staining
L. monocytogenes = test: Determination of the MIC against L. monocytogenes (96-well broth dilution); assay type: cell-based, Listeria monocytogenes; settings: Minimum Inhibitory Concentration against L. monocytogenes, 18 h at 37° C.
Method: One colony of an indicator strain (L. monocytogenes) was picked from an NB agar plate, inoculated to liquid NB medium and grown at 37° C., in a shaking incubator until OD^600 nm of 0.5 was reached. Then, the culture was diluted with NB medium and serial twofold dilutions with NB medium were made. Hundred microliters of Enterocin 96 solution (1 mg/ml in MQ) were transferred to a 96-well plate and mixed with 100 μl previously prepared cell suspension of sensitive strain. Similarly, positive control Nisin (1 mg/ml in MQ, Sigma Cat. # N5764), 100 μl mixture of NB medium with the Listeria, and negative controls (media alone, untreated indicator strain). 100 μL mixture of NB medium were prepared and dispersed in the same 96-well plates. The plate was incubated for 18 h at 37° C. in a shaking incubator. After incubation, the growth of bacteria was evaluated visually and by a plate reader. The analyses were performed in triplicate. Similarly, MIC of other variants of Enterocin 96 (neo-glycocins) was determined using above described method.

HepG2 cells = test: Anti-cancer MTT reduction assay; assay type: cell-based; settings: 50% cell (cancerous) death, HepG2 cells, MTT, 18-24 hours
Method: as §1

human red blood cells = test: Hemolytic assay; assay type: cell-based
Method: Samples were prepared within 3 h of performing the assay. Neo-glycocins stock solutions of 1 mg/ml were prepared by dissolving the neo-glycocins in PBS (10 mM phosphate buffer, pH 7.4); the samples were mixed by inversion to ensure neo-glycocins were completely dissolved in PBS. To prepare the Human Red Blood Cell (hRBC) solution, blood was collected from healthy individual and RBCs were isolated following standard procedure. Informed consent was acquired from all donors and this work was carried out in compliance with the ethical committee guidelines of CSIR-IMTECH with IEC NO SUIEC/14/03.
2 ml whole blood from healthy individual was centrifuged for 30 mins at 1000 rpm(4° C.). Layer of RBCs was collected and diluted with equal volume of 1×PBS and mixture was centrifuged three times for 10 mins at 1000 rpm, 4° C. To prepare 4% RBC solution, 1 ml of RBC were mixed with 24 ml 1×PBS. To examine the hemolysis property of neo-glycocins (75-1000 μM), 20 μl of freshly prepared neo-glycocins solution was mixed with 180 μl of freshly prepared hRBC solution and was placed at 37° C. for 1 h. A total of 20 μl of PBS buffer only and 20 μl of Triton X-100 1% (w/v) were mixed with 180 μl of hRBC solution as negative and positive controls, respectively. After 1 h of incubation, all samples were centrifuged at 2500 rpm for 10 min. A total of 100 μl of supernatant was collected, and the release of hemoglobin was monitored by measuring the absorbance of the supernatant at 570 nm with a Multiskan Go plate-reader (Thermo Scientific). Hemolysis percentage for each sample was calculated by dividing sample's absorbance on positive control absorbance (complete hemolysis) multiplied by 100.

Substance: variant of Enterocin 96: MASKRDCNLMKACCAEQAVTYAIQSLLNRLGGDSSDPAGCNDIVRKYCK (Variant of Enterocin 96) [SEQ ID NO: 45]
- IC50 (THP-1 cells): 167.3 ± 1.39 µM
- Zone of inhibition as well as glycosylation positive (L. monocytogenes EGD-e): positive
- Zone of inhibition as well as glycosylation positive (L. monocytogenes EGD-e; listed as G16E-H24L): Yes
- Anti-bacterial activity (MIC in μM) (L. monocytogenes): >0.54 µM
- IC50 (HepG2 cells): 222.3 ± 0.11 µM
- Hemolysis (MHC in μM) (human red blood cells): 600 µM

Substance: SEQ ID NO: 57: variant of Enterocin 96: MASKRDCNLMKACCAGQAVTYAIHSLLNRLGGDSSDWRCK (Variant of Enterocin 96)
- Zone of inhibition as well as glycosylation positive (L. monocytogenes EGD-e): neither showed any bioactivity nor glycosylation

Substance: variant of Enterocin 96: MASKRDCNLMKACCAGQAVTYAIHSLLNRLGGDSSGPAGCNDIVRKYCK (Variant of Enterocin 96) [SEQ ID NO: 42]
- IC50 (THP-1 cells): 279.3 ± 0.0769 µM
- Zone of inhibition as well as glycosylation positive (L. monocytogenes EGD-e): positive
- Zone of inhibition as well as glycosylation positive (L. monocytogenes EGD-e; listed as D36G): Yes
- Anti-bacterial activity (MIC in μM) (L. monocytogenes): >0.54 µM
- IC50 (HepG2 cells): 204.2 ± 0.134 µM
- Hemolysis (MHC in μM) (human red blood cells): 600 µM

Substance: SEQ ID NO: 53: variant of Enterocin 96: MASKRDCNLMKACCAGLAVTYAIHSLLNRLGGDSSDPAGCNDIVRKYCK (Variant of Enterocin 96)
- Zone of inhibition as well as glycosylation positive (L. monocytogenes EGD-e): positive
- Zone of inhibition as well as glycosylation positive (L. monocytogenes EGD-e; listed as Q17L): Yes

Substance: SEQ ID NO: 54: variant of Enterocin 96: MASKRDCNLMKACCAGQAVTYAIHSLLNRLGGDPSDPAGCNDIVRKYCK (Variant of Enterocin 96)
- Zone of inhibition as well as glycosylation positive (L. monocytogenes EGD-e): neither showed any bioactivity nor glycosylation

Substance: variant of Enterocin 96: MASKACCAGQAVTYAIHSLLNRLGGDSSDPAGCNDIVRKYCK (Variant of Enteriocin 96) [SEQ ID NO: 41]
- IC50 (THP-1 cells): 309.4 ± 0.388 µM
- Zone of inhibition as well as glycosylation positive (L. monocytogenes EGD-e): positive
- Zone of inhibition as well as glycosylation positive (L. monocytogenes EGD-e; listed as ECT): Yes
- Anti-bacterial activity (MIC in μM) (L. monocytogenes): >0.54 µM
- IC50 (HepG2 cells): 167 ± 0.122 µM
- Hemolysis (MHC in μM) (human red blood cells): 600 µM

Substance: SEQ ID NO: 51: variant of Enterocin 96: MASKHDCNLMKACCAGQAVTYAIHSLLNRLGGDSSDPAGCNDIVRKYCK (Variant of Enterocin 96)
- Zone of inhibition as well as glycosylation positive (L. monocytogenes EGD-e): positive
- Zone of inhibition as well as glycosylation positive (L. monocytogenes EGD-e; listed as R5H): Yes

Substance: SEQ ID NO: 46: variant of Enterocin 96: MASKRDCNLMKACCAEQAVTYAIHSLLNRLGGDSSDPAGCNDIVRKYCK (Variant of Enterocin 96)
- Zone of inhibition as well as glycosylation positive (L. monocytogenes EGD-e): positive

Substance: SEQ ID NO: 44: variant of Enterocin 96: MASKRDCNLMKARCAGQAVTYAIHSLLNRLGGDSSDPAGCNDIVRKYCK (Variant of Enterocin 96)
- Zone of inhibition as well as glycosylation positive (L. monocytogenes EGD-e): positive
- Zone of inhibition as well as glycosylation positive (L. monocytogenes EGD-e; listed as C13R): Yes

Substance: SEQ ID NO: 59: variant of Enterocin 96: MASKRDCNLMKACCAGQAVTYAIHSLLNRLGGDSSEPAGCNDIVRKYCK (Variant of Enterocin 96)
- Zone of inhibition as well as glycosylation positive (L. monocytogenes EGD-e): neither showed any bioactivity nor glycosylation

Substance: SEQ ID NO: 49: variant of Enterocin 96: MASKRDCNLMKACCAGHAVTYAIHSLLKRLGGDSSDPAGCNDIVRKYCK (Variant of Enterocin 96)
- Zone of inhibition as well as glycosylation positive (L. monocytogenes EGD-e): positive
- Zone of inhibition as well as glycosylation positive (L. monocytogenes EGD-e; listed as Q17H-N28K): Yes

Substance: SEQ ID NO: 48: variant of Enterocin 96: MASKRDCNLMKACCAGQAVTYAIHSLLYRLGGDSSDPAGCNDIVRKYCK (Variant of Enterocin 96)
- Zone of inhibition as well as glycosylation positive (L. monocytogenes EGD-e): positive
- Zone of inhibition as well as glycosylation positive (L. monocytogenes EGD-e; listed as N28Y): Yes

Substance: SEQ ID NO: 47: variant of Enterocin 96: MASKRDCNLMKACCAGQAVTYAIHSLLNRLGGDSSVPAGCNDIVRKYCK (Variant of Enterocin 96)
- Zone of inhibition as well as glycosylation positive (L. monocytogenes EGD-e): positive
- Zone of inhibition as well as glycosylation positive (L. monocytogenes EGD-e; listed as D36V): Yes

Substance: SEQ ID NO: 43: variant of Enterocin 96: MASKRDCNLMKACCAGQAVTYAIQSLLNRLGGDSSDPAGCNDIVRKYCK (Variant of Enterocin 96)
- Zone of inhibition as well as glycosylation positive (L. monocytogenes EGD-e): positive
- Zone of inhibition as well as glycosylation positive (L. monocytogenes EGD-e; listed as H24Q): Yes

Substance: SEQ ID NO: 52: variant of Enterocin 96: MASKRDCNLMKACCAGQAVTYGIHSLLNRLGGDSSDPAGCNDIVRKYCK (Variant of Enterocin 96)
- Zone of inhibition as well as glycosylation positive (L. monocytogenes EGD-e): positive
- Zone of inhibition as well as glycosylation positive (L. monocytogenes EGD-e; listed as A22G): Yes

Substance: SEQ ID NO: 55: variant of Enterocin 96: MASKRDCNLMKACCAGQAVTYAIHSLLNRLGGNSSDPAGCNDIVRKYCK (Variant of Enterocin 96)
- Zone of inhibition as well as glycosylation positive (L. monocytogenes EGD-e): neither showed any bioactivity nor glycosylation

Substance: SEQ ID NO: 58: variant of Enterocin 96: MASKRDCNLMKACCAGQAVTYAIHSLLNRLGGDSGDPAGCNDIVRKYCK (Variant of Enterocin 96)
- Zone of inhibition as well as glycosylation positive (L. monocytogenes EGD-e): neither showed any bioactivity nor glycosylation

Substance: SEQ ID NO: 50: variant of Enterocin 96: MASKRDCNLMKACCAGQAVTYAIHSLLNRLGGDSSDPAGSNDIVRKYCK (Variant of Enterocin 96)
- Zone of inhibition as well as glycosylation positive (L. monocytogenes EGD-e): positive
- Zone of inhibition as well as glycosylation positive (L. monocytogenes EGD-e; listed as C40S): Yes

Substance: SEQ ID NO: 56: variant of Enterocin 96: MASKRDCNLMKACCAGQAVTYAIHSLLNRLGGDFSDPAGCNDIVRKYCK (Variant of Enterocin 96)
- Zone of inhibition as well as glycosylation positive (L. monocytogenes EGD-e): neither showed any bioactivity nor glycosylation
